{
  "source": "patent US8318815B2",
  "about": "“Method for treatment of tumors using nordihydroguaiaretic acid derivatives” (priority 1999, dated 2012)",
  "key": {"[1]": {"tested_on": "HIV LTR promoter (Tat-transactivation)", "assay": "Tat-transactivation of HIV promoter activity in Cos cells, SEAP assay", "type": "cell-based", "conditions": "read-out: IC50 for inhibition of HIV Tat-regulated transactivation", "description": "As reported previously, methylated NDGA derivatives can block Sp1 binding to the enhancer sites of a variety of viral promoters including HIV, ICP4 of HSV, E6/E7 gene of HPV (8, 9, 10). We further tested the G4N effect on the Tat-transactivation of HIV promoter activity in Cos cells by the SEAP assay as previously described. […] There were 60-fold or more increase in SEAP expression when Cos cells were cotransfected with the CMV promoter driven Tat gene (8). Such Tat-driven ransactivation of the HIV LTR promoter activity was previously shown to be Sp1 regulated (7, 8). In the presence of G4N, we observed inhibition of HIV transactivation in a dose-dependent fashion (FIG. 14). […]. The differences perhaps are due to the chemical nature of the test compounds affecting the drug uptake to the cells."}, "[2]": {"tested_on": "HIV-1RTMF", "assay": "HIV-1 production in H9 cells, p24 antigen capture ELISA", "type": "cell-based", "conditions": "p24, AZT resistant strain, read-out: IC50 for the inhibition of HIV-1 RTMF", "protocol": "FIG. 16. Inhibition of HIV p24 antigen production in H9 cells by G4N. Inhibition in percentage was calculated by comparing p24 level from an average of two duplicate cultures of G4N treated and not treated H9 cells 9 days following viral infection with a AZT resistant HIV strain, HIV-1RTMF.\n(§1) A similar experiment was also carried out for the study of inhibition of HIV-1 by G4N in H9 cells. The H9 cells were subcultured at 1×10^5/ml and were infected with an AZT resistant strain of HIV-1(HIV-1RTMF). G4N in different concentrations was added two hours after infection. Fresh medium change was made every four days. Cell growth in the presence of G4N was monitored carefully during the nine-day experimental period. Viral production was assayed by a p24 core antigen capture ELISA. […] Again, there was no detectable toxicity to uninfected H9 cells within the range of the assay (and below 250 μM)."}, "[3]": {"assay": "Toxicity studies of G4N in mice", "conditions": "for Mortality: 6 days", "method": "C57BL-16NCR female mice from NCI were used in this experiment.\nInjections of 0.05 ml for group 1, 0.1 ml for groups 2 and 4, and 0.2 ml for group 3 per treatment were made for a period of 6 days. Experiments lasted seven days. Body weights were determined before and after six days of injection."}, "[4]": {"tested_on": "174×CEM cells", "type": "cell-based, human", "description": "Both HIV-1 and SIV are retroviruses that require integration into the host genome to complete their replication. Both rely on host transcription factors for their proviral transcriptions. Sp1 plays a central role for such expression in these two viruses sharing an almost identical mode of transcription regulation. In anticipation of using SIV infected rhesus monkeys as animal model for testing the antiviral effect of G4N, we have studied and compared the G4N effect in inhibition of SIV in 174×CEM cells with that of HIV in H9 cells. Cellular toxicities of G4N in these two cell lines were also examined. For SIV inhibition study, 10^7 174×CEM cells were mixed with high titer stock of SIVmac 239 at 37° C. for two hours and then washed twice with cold PBS buffer to remove the unabsorbed virus. Cell suspension was aliquoted into each well of three 96 well plates. Various concentrations of the G4N solutions were made from freshly prepared stock and aliquoted separately and each to six wells in a column of one 96 well plate. Culture supernatants were collected every four days post infection. […] There was no SIV production detected using G4N in concentrations above […]. At G4N concentrations below 2.5 CIM, SIV production was detected (FIG. 15) in culture supernatants from 4th and 8th days post infected cultures as compared to viral production in the absence of the drug."}, "[5]": {"tested_on": "SIVmac 239", "assay": "SIV production in 174×CEM cells, p27 antigen capture ELISA", "type": "cell-based", "protocol": "FIG. 15. SIV production with presence of G4N. 10^7 […], a human T-cell lymphoma cell line, were mixed with a 24 hrs. harvest stock of SIV mac 239 (4 ng of p27) for two hours at 37. Cells were resuspended and 1×10^5 cells in 100 μl medium were added to each well of three 96-well plates. Various concentrations of G4N from a freshly made stock were prepared and added to each of the six designed well. Culture supernatants were collected after four and eight days for viral production analysis. Viral production was assayed by a modified p27 capsid protein antigen capture ELISA as described in experimental section.\nBoth HIV-1 and SIV are retroviruses that require integration into the host genome to complete their replication. Both rely on host transcription factors for their proviral transcriptions. Sp1 plays a central role for such expression in these two viruses sharing an almost identical mode of transcription regulation. […] There was no SIV production detected using G4N in concentrations above […]. At G4N concentrations below 2.5 CIM, SIV production was detected (FIG. 15) in culture supernatants from 4th and 8th days post infected cultures as compared to viral production in the absence of the drug."}, "[6]": {"tested_on": "H9 cells", "type": "cell-based", "protocol": "as §1"}, "[7]": {"target": "Sp1-167D / HIV Sp1-binding sites (Homo sapiens, UniProt P08047)", "sequence (P08047 619-785 limits assumed)": "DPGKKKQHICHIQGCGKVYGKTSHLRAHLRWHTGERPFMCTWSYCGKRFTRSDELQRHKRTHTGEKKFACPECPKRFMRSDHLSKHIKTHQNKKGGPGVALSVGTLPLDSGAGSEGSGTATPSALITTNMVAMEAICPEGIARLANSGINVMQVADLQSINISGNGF", "assay": "Gel mobility-shift analysis (EMSA) of Sp1-167D binding to HIV Sp1 DNA template", "conditions": "0.25 to 1.75 mM", "protocol": "FIG. 13. Electrophoretic mobility shift assay (EMSA) of G4N interaction with the HIV Sp1-binding sites (−87 to −49). (A) G4N inhibition of Sp1-167D binding to ^32P labeled HIV Sp1 DNA template. […] Lane 1, template alone; lanes 2-4, template plus increasing amounts of Sp1-167D (0.075, 0.150, 0.300 μg); lanes 5-8, template incubated in reaction buffer containing 1.2 mM G4N followed by challenge with increasing amounts of Sp1-167D (0.075, 0.150, 0.300 μg), lane 8 received no Sp1-167D. (D) Plot of diminishing Sp1-167D/DNA complex band intensities in response to increasing concentrations of G4N used in (A) ---•--- and (B) —•—. The gels used were 5% non-denaturing polyacrylamide with each lane receiving 5 μl of each reaction volume as described in experimental section and Ref. [1].\nSp1 family proteins induce bends toward the major groove of DNA upon binding (33). The zinc finger domain of the Sp1 protein is responsible for the binding of the GC Box sequence 5′-GGGGCGGGG-3′. From computational analysis, it was determined that G4N, the aminoester derivative of NDGA, could form a stable complex with such a sequence in the major groove. To determine whether G4N can serve as an Sp1 blocker as well as an Sp1 displacer, we performed Sp1/enhancer interaction studies in the presence or absence of G4N by the gel mobility-shift analysis using only the […] binding domain of Sp1 for testing. […]"}, "[8]": {"tested_on": "HSV-1", "assay": "HSV-1 skin infection in guinea pig, topical treatment", "type": "in vivo", "conditions": "30 μl of 60 mg/ml in DMSO, five times per day for six days", "protocol": "The drug M4N was also tested in inhibition of HSV-1 replication in skin infections in guinea pigs. Guinea pig skin was pinched with needles and HSV-1 […] was applied topically to infect each pricked area. M4N was then applied to the pricked infected area following infection daily for 6 days.\nSix areas of bared back skin of a guinea pig were punched sterilely with a 5=DIN needle. Two areas were infected with HSV-1 (HSV-C, culture supernatant, or isolated HSV in saline, HSV-SC). The other four areas were infected with HSV-SC."}, "[9]": {"tested_on": "HSV-1", "conditions": "cited from earlier work; for IC50: infected Vero cells"}, "[10]": {"tested_on": "HSV-2", "conditions": "infected Vero cells; fourth passage of HSV-2; cited from earlier work"}, "[11]": {"tested_on": "mammalian cells", "conditions": "low concentrations (10 μM); cited from earlier work"}},
  "note": "Read-outs that look alike come from different tables or passages of the source.",
  "data": [
    {"smiles": "COc1cc(C[C@H](C)[C@H](C)Cc2ccc(O)c(O)c2)ccc1O", "note": "[Ma1.4, 3-O-methyl NDGA, reference compound]", "values": [
      {"measurement": "IC50", "setting": "[1]", "value": 25, "unit": "µM"}
    ]},
    {"smiles": "C[C@H](Cc1ccc(OC(=O)CN(C)C)c(OC(=O)CN(C)C)c1)[C@@H](C)Cc1ccc(OC(=O)CN(C)C)c(OC(=O)CN(C)C)c1.Cl.Cl.Cl.Cl", "note": "[G4N, meso-1,4-Bis [3,4-(dimethylaminoacetoxy)phenyl]-(2R,3S)-dimethylbutane Chloride Salt]", "values": [
      {"measurement": "IC50", "setting": "[2]", "value": 12, "unit": "µM"},
      {"measurement": "Mortality", "setting": "[3]; 187.5 mg/kg, Subcutaneous, 2× per day", "value": "0/3"},
      {"measurement": "Mortality", "setting": "[3]; 375 mg/kg, IV, 2× per day", "value": "0/2"},
      {"measurement": "Mortality", "setting": "[3]; 375 mg/kg, Subcutaneous, 1× per day", "value": "0/3"},
      {"measurement": "Mortality", "setting": "[3]; 750 mg/kg, Subcutaneous, 1× per day", "value": "1/4"},
      {"measurement": "body weight changes during the experimental period", "setting": "[3]; before and after six days of injection", "value": "No significant weight changes"},
      {"measurement": "concentration with no toxic effect on uninfected cells", "setting": "[4]", "value": "≤ 250", "unit": "µM"},
      {"measurement": "concentrations at which no SIV production was detected", "setting": "[5]", "value": "above 5 CIM"},
      {"measurement": "concentrations at which SIV production was detected", "setting": "[5]; 4th and 8th days post infection", "value": "below 2.5 CIM"},
      {"measurement": "concentration with no detectable toxicity to uninfected cells", "setting": "[6]", "value": "below 250 μM"},
      {"measurement": "IC50", "setting": "[1]", "value": 36, "unit": "µM"},
      {"measurement": "blocking and displacement of Sp1-167D binding to DNA", "setting": "[7]", "value": "able keep DNA from interacting with Sp1-167D protein"}
    ]},
    {"smiles": "Nc1nc2c(ncn2COCCO)c(=O)[nH]1", "note": "[ACV, acycloguanosine]", "values": [
      {"measurement": "blisters in HSV-1 infected skin areas at day 6", "setting": "[8]", "value": "no blisters"},
      {"measurement": "drop of selective index, S.I. (TC50/IC50)", "setting": "[9]; following the viral passages in Vero cells", "value": 60, "unit": "fold"},
      {"measurement": "IC50", "setting": "[9]; first viral passage", "value": 7, "unit": "µM"},
      {"measurement": "IC50", "setting": "[9]; tenth passage of HSV-1", "value": 444, "unit": "µM"},
      {"measurement": "IC50", "setting": "[10]", "value": "> 88", "unit": "µM"}
    ]},
    {"smiles": "CC(Cc1ccc(O)c(O)c1)C(C)Cc1ccc(O)c(O)c1", "note": "(stereo not shown) [NDGA, nordihydroguaiaretic acid]", "values": [
      {"measurement": "apoptosis in mammalian cells", "setting": "[11]", "value": "induce apoptosis"}
    ]}
  ]
}
